# Laboratory results from patent US9180163B2, “Parstatin peptides” (priority 2009, dated 2015).
# Where two headings read alike, the source gives them in different places.
# How the values were obtained:
# [1] = test system: choroidal neovascularization in C57BL/6J mice; assay type: in vivo; conditions: 10 μg intravitreal after laser and day 7; assessed day 14; vs vehicle (PBS or DMSO)
# Description: Parstatin (1-41), hydrophobic parstatin (1-26) fragment and hydrophilic parstatin (24-41) fragment were used in an in vivo mouse model of choroidal neovascularization. In particular, laser photocoagulation-induced rupture of Bruch's membrane was used to generate choroidal neovascularization as a preclinical disease model for age-related macular degeneration. Pathogen-free C57BL/6J (4-5 week-old) mice were treated in accordance with the Association for Research in Vision and Ophthalmology Statement for the Use of Animals in Ophthalmic and Vision Research and the guidelines of the Animal Care and Use Committee at local University Medical School.
# C57BL/6J (4-5 week-old) mice were anesthetized with ketamine hydrochloride (100 mg/kg body weight) and xylazine-(4 mg/Kg body weight) and the pupils were dilated with 1% tropicamide. Laser photocoagulation (75 μm spot size, 0.1 sec duration, 120 mW) was performed in the 9, 12, and 3 o'clock positions of the posterior pole of the retina with the slit lamp delivery system of an Oculight GL diode laser (Index, Mountain View, Calif.) and a handheld cover slip as a contact lens to view the retina. Production of a bubble at the time of laser, which indicates rupture of Bruch's membrane, is an important factor in obtaining CNV. Therefore, only burns in which a bubble was produced were included in the study. Two weeks after rupture of Bruch's membrane, anesthetized mice were perfused with 50 mg/ml fluorescein-labelled-dextran (2×10^6 average molecular weight, Sigma-Aldrich, St. Louis, Mo.). The eyes were then dissected and fixed in 10% Formalin for 3 hours and choroidal flat mounts were examined by fluorescence microscopy. Image-Pro Plus software (Media Cybernetics, Silver Spring, Md.) was used to measure the total area of CNV at each rupture site by personnel blinded as to study treatments and groups.
# Intraocular injections of parstatin peptides were performed with a Harvard pump microinjection apparatus and pulled glass micropipets. […] Choroidal neovascularization was assessed 14 days after laser treatment.
# [2] = test system: renal ischemia-reperfusion injury in Wistar rats
# Description: Pathogen-free male Wistar rats weighting 250-300 g were used and treated in compliance with the “Guide for the Care and Use of Laboratory Animals” published by the US National Institutes of Health (NIH Publication NO. 85-23, revised 1996).
# Rats were anesthetized with intramuscular injection of ketamine (25 mg/Kg) and xylazine hydrochloride (10 mg/Kg). After a midline laparotomy, the renal pedicles were identified and bilaterally occluded for a period of 45 min using nontraumatic microaneurysm clamps. The presence of ischemia was visually confirmed by observing blanching of the kidneys. Sham-operated rats were subjected to identical surgical procedures without causing renal ischemia by application of microaneurysm clamps. At the end of ischemia period the clamps were removed and renal reperfusion was established. All rats were killed 4 hours after the initiation of reperfusion.
# Urine was collected during reperfusion, and at the end of the experiments blood samples were taken and analyzed for biochemical markers of renal impairment. Serum creatinine levels were measured as an indicator of glomerular function. Urine concentrations of Na^+ were determined and used in conjunction with serum Na^+ concentrations to estimate FENa which was used as a sensitive indicator of tubular function.
# For histological assessment of renal ischemia-reperfusion injury, the rat kidneys were removed 4 hours after reperfusion, fixed in 10% formalin, embedded in paraffin, sectioned (5-μm thicknesses), and stained with haematoxylin and eosin. Tubular injury was identified by the presence of any of flattened tubular cells, loss of brush border, and cast formation. Ten high-powered fields (hpf's; ×400 magnification) from the outer medulla and corticomedullary junction were examined from each animal to determine the percentage of tubules showing evidence of injury and scored according to the following scale: 0, no injury; 1, less than 10%; 2, 10% to 25%; 3, 26% to 75%; 4, greater than 75%. The 10 scores were averaged to give the tubular injury score for each specimen.
# [3] = test system: Akt (Ser473), endothelial NOS (Ser1177); test: immunoblot of phospho-Akt and phospho-eNOS in left ventricle after ischemia-reperfusion; assay type: in vivo, rat
# Description: To determine whether the cardioprotective effect of parstatin (1-26) is mediated through the PI3K/Akt pathway, rats were treated with wortmannin (15 μg/Kg, a potent and specific PI3K inhibitor) alone or in combination with parstatin fragment 1-26 (1 μg/Kg). Wortmannin abrogated the cardioprotective effects of parstatin (1-26) (FIG. 24B). In addition, the left ventricular free wall tissue was homogenized and immunoblot analysis was performed using an anti-phospho-Akt (Ser473) primary antibody (Cell Signaling Technology, Danvers, Mass.). […] Co-treatment with wortmannin blocked parstastin (1-26)-mediated Akt phorsphorylation (FIG. 24C).
# To determine whether parstatin (1-26) protects the heart by a mechanism involving nitric oxide synthase (NOS), rats were treated with L-NMA (15 μg/Kg, a general NOS inhibitor), with or without parstatin (1-26) (1 μg/Kg) prior to ischemia. […] The role of parstatin (1-26) in endothelial NOS activation was further evaluated by measuring the phosphorylation of Ser1177. In these experiments, the left ventricular free wall tissue was homogenized and immunoblot analysis was performed using an anti-phospho-endothelial NOS (Ser1177) primary antibody (Cell Signaling Technology, Danvers, Mass.). […] In addition, nitrite and nitrate content, a marker of endothelial NOS activity, was measured from both ischemic and non-ischemic tissues. Ischemia and 120 min reperfusion caused an increase in the production of NO in the ischemic tissue from the control group when compared to the sham group (FIG. 25D). […] Pre-ischemic treatment with parstatin (1-26) further increased NO content in the ischemic tissue by an additional 1.4-fold over control values and 2.0-fold over sham treated values.
# HUVEC cells [4] = test: modified Boyden's chamber cell migration assay; assay type: cell-based, human; conditions: toward 5% FBS, 6 h; other peptides 10 μM
# Description: HUVEC cell migration was assessed using a modified Boyden's chamber assay, i.e., in Transwell cell culture chambers (Corning Life Sciences, Acton, Mass.). Briefly, polycarbonate filters with 8 μm pores were used to separate the upper and the lower chambers. Cells were added to the upper compartment at a density of 10,000 cells/100 μl in serum-free medium containing 0.5% BSA and incubated for 6 h. Directional migration (chemotaxis) in the lower chamber was induced by addition of medium containing 5% FBS to the lower chamber. Where indicated parstatin or other peptides were added to lower chamber.
# Cells on the filters were fixed and stained. The non-migrated cells (cells in upper surface) were removed by wiping with cotton swabs. The cells on the lower surface were counted manually under microscope in six predetermined fields. Parstatin (1-41) attenuated chemotactic cell migration through microporous membrane in response to serum (FIG. 3C). When human parstatin was combined with 5% FBS, the number of migrated cells was reduced in concentration-dependent manner.
# HUVEC cells [5] = test: Fibrin gel in vitro angiogenesis assay; assay type: cell-based, human; conditions: VEGF/bFGF-induced, 24 h; other peptides 10 μM
# Description: The ability of endothelial cells to form three-dimensional structures was analyzed using a Fibrin gel in vitro angiogenesis assay kit (Chemicon International Inc. Temecula, Calif.). Fibrin gels were formed in 48-well plates by mixing fibrinogen and thrombin solutions, according to manufacturer instructions. Cells (40,000 cells/well) were then added and cultured in medium containing 2% FBS for 18 h. After the addition of a second layer of fibrin gel, endothelial cells sandwiched within fibrin gels were cultured in serum-free medium containing 0.5% bovine serum albumin (BSA) and the combination of VEGF/bFGF for 24 h. Where indicated, parstatin (1-41) or other indicated peptides were added. Capillary-like network was photographed and measured.
# [6] = parstatin (1-26) IV 10 seconds after initiation of reperfusion
Sequence,inhibition of choroidal neovascularization [1] [%],histological scoring of renal injury ([2]; 10 μg/Kg),reduction of FENa ([2]; 10 μg/Kg IV pre-ischemic) [%],reduction of serum creatinine ([2]; 10 μg/Kg IV pre-ischemic) [%],"reduction of FENa [2, 6] [%]","reduction of serum creatinine [2, 6] [%]","phosphorylation of Akt/Ser473 ([3]; 1 μg/kg pre-ischemic, 5 min reperfusion, vs control rats)","endothelial NOS phosphorylation (Ser1177) ([3]; 1 μg/kg, 5 min reperfusion)",Ser1177 phosphorylation with wortmannin ([3]; wortmannin),Akt phosphorylation with wortmannin co-treatment ([3]; wortmannin 15 μg/kg),chemotactic cell migration (HUVEC cells [4]),capillary-like network (total capillary tube length) in fibrin gels (HUVEC cells [5])
MGPRRLLLVAACFSLCGPLLSARTRA (listed as Homo sapiens) [parstatin (1-26)],62,significantly reduced,66,27,72,30,increased phosphorylation,increased endothelial NOS phosphorylation,blocked,blocked,–,–
"TRARRPESKATNATLDPR (listed as Homo sapiens) [parstatin (24-41), 24-41 (18 amino acids) of human parstatin, hydrophilic fragment]",77,–,–,–,–,–,–,–,–,–,without effect,did not affect
